Experimental data taken from patent US9745308B2, “Pyridazinone derivatives as phoshoinositide 3-kinases inhibitors” (CHIESI FARMACEUTICI S.p.A., priority 2014, dated 2017).

Assays:
PI3Kα = PI3Kα (Homo sapiens, UniProt P42336); assay: PI3K enzyme inhibitory activity in the cell free assay (ADP-Glo Kinase Assay), PI3K alpha
PI3Kγ = PI3Kγ (Homo sapiens, UniProt P48736); assay: PI3K enzyme inhibitory activity in the cell free assay (ADP-Glo Kinase Assay), PI3K gamma
PI3Kδ = PI3Kδ (Homo sapiens, UniProt O00329); assay: PI3K enzyme inhibitory activity in the cell free assay (ADP-Glo Kinase Assay), PI3K delta
Chain of PI3Kδ (O00329 whole entry): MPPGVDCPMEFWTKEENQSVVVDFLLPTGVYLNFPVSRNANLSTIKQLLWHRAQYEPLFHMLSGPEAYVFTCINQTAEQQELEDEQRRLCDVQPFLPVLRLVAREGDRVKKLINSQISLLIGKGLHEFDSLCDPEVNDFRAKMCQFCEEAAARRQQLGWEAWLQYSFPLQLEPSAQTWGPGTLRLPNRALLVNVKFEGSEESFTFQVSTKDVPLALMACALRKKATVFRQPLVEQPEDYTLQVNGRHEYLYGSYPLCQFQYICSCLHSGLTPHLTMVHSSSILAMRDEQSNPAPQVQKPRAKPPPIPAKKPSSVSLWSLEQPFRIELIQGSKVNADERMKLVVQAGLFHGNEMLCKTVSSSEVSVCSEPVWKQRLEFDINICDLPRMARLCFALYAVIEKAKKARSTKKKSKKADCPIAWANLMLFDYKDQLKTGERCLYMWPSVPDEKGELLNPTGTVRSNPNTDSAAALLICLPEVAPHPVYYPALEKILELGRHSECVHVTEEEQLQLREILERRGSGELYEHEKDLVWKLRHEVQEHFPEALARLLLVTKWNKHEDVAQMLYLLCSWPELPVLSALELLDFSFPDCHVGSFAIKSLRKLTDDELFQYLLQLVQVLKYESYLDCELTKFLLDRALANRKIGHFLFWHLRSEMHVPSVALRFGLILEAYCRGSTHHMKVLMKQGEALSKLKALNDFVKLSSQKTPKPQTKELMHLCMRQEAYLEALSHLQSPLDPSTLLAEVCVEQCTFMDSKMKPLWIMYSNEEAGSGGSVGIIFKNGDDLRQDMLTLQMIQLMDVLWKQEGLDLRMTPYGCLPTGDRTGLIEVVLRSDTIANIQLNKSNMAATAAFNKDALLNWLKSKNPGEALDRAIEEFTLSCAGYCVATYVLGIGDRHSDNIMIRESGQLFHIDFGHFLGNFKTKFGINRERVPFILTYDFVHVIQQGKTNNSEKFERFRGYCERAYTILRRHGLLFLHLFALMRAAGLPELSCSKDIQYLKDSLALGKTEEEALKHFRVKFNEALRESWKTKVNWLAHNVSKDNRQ
Chain of PI3Kδ (P27986 whole entry partner): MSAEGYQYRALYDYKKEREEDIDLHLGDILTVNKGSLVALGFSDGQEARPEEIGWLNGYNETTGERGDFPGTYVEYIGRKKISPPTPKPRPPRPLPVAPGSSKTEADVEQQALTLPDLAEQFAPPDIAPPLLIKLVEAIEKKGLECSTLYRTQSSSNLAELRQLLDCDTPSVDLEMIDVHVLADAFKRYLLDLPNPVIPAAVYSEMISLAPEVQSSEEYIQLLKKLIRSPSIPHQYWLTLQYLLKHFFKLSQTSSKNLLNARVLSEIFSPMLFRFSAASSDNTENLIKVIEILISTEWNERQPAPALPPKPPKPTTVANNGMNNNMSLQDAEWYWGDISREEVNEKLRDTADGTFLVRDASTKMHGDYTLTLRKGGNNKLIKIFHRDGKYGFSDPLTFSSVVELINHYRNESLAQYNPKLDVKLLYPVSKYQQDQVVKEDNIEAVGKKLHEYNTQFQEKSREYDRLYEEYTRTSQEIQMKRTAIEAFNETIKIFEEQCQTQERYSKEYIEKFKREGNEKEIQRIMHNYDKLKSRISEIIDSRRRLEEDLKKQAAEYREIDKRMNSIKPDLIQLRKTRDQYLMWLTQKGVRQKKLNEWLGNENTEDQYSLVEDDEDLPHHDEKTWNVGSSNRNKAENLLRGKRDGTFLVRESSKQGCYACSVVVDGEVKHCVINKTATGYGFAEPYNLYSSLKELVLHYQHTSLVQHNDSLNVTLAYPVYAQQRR

PI3Kβ = PI3Kβ (Homo sapiens, UniProt P42338); assay: PI3K enzyme inhibitory activity in the cell free assay (ADP-Glo Kinase Assay), PI3K beta
Chain of PI3Kβ (P42338 whole entry): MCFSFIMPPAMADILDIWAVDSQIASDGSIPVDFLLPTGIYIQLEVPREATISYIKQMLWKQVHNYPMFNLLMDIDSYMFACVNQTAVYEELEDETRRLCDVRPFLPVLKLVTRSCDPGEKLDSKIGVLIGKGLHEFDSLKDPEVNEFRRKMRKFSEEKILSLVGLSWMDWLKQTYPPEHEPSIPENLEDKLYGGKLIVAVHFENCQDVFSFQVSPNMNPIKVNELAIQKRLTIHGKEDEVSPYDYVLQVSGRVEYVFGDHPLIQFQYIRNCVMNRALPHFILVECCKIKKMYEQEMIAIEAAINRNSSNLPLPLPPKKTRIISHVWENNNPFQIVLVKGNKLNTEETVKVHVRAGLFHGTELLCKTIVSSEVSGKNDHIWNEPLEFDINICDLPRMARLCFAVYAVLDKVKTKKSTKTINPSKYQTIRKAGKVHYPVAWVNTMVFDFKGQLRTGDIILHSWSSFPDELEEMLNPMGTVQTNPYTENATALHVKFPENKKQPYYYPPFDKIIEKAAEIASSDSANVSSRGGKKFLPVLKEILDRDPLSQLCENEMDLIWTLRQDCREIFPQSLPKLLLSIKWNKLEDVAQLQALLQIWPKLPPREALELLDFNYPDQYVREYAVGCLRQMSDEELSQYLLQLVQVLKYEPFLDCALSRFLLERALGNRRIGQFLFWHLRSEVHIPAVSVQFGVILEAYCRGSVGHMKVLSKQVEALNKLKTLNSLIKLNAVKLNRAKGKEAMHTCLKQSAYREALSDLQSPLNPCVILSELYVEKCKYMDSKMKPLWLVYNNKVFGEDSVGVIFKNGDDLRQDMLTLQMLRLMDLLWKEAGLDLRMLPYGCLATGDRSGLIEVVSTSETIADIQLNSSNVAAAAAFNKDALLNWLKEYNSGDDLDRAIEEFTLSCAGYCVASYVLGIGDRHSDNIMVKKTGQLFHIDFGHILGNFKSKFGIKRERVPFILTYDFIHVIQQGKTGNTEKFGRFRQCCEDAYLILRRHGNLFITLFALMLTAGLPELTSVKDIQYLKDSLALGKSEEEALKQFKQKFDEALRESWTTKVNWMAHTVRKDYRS
Chain of PI3Kβ (P27986 whole entry partner): as the sequence (P27986 whole entry partner) above

Chain of PI3Kγ (P48736 whole entry): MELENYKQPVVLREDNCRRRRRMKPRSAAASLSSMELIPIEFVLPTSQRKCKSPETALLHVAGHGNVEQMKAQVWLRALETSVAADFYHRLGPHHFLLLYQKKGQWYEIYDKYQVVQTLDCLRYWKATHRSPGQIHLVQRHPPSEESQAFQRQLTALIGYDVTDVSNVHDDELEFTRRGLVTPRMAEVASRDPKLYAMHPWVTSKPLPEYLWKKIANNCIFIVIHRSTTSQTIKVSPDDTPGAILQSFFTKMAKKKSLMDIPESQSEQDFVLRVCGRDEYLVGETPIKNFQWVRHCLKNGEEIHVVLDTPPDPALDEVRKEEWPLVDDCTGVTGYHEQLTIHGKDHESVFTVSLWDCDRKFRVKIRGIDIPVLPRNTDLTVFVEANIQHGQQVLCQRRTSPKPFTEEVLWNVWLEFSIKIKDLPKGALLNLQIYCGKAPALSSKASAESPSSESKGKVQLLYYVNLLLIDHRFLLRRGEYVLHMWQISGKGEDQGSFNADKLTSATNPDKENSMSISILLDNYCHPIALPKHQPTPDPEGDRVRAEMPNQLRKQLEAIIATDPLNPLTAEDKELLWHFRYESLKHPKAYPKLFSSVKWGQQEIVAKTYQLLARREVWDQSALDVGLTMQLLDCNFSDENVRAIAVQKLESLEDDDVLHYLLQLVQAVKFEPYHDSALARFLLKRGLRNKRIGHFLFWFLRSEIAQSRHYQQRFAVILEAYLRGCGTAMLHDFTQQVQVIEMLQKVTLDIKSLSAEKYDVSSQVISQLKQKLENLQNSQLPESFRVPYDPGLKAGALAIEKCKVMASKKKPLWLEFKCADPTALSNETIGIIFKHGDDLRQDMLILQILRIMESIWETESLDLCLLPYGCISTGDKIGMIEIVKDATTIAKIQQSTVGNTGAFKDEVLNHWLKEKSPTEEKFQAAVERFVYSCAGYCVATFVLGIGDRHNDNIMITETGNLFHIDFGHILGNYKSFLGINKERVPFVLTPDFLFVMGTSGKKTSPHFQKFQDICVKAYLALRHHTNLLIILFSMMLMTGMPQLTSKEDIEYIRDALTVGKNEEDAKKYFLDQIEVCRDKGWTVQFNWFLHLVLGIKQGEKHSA
Chain of PI3Kα (P42336 whole entry): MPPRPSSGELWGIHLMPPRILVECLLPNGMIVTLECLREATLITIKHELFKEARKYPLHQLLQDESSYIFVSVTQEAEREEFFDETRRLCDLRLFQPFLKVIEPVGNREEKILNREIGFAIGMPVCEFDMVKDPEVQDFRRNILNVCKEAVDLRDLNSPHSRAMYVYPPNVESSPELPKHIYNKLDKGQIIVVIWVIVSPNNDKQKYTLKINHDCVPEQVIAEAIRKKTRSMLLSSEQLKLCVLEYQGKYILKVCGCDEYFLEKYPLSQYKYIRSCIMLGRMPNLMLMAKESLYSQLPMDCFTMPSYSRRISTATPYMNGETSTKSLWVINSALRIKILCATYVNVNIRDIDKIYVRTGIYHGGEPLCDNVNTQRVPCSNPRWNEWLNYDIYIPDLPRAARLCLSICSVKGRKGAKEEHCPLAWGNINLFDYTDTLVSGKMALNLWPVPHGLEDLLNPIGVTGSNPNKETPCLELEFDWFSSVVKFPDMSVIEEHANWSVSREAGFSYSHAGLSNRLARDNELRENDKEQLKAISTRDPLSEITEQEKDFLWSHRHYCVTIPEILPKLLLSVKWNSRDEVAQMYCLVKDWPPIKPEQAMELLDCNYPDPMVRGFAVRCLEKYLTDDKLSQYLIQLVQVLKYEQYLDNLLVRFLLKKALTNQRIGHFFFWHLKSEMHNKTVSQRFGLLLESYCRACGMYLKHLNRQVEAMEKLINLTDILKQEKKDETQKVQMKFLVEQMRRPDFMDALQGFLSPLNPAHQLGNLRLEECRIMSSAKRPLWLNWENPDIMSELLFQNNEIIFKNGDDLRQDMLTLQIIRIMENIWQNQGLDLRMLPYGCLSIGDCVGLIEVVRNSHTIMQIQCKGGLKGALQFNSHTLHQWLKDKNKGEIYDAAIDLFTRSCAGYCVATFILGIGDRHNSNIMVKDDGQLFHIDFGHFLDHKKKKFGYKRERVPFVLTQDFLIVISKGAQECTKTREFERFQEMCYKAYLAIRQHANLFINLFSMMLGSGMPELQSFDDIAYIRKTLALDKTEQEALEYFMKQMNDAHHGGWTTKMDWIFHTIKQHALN
Chain of PI3Kα (P27986 whole entry partner): as the sequence (P27986 whole entry partner) above

SMILES | IC50 (PI3Kα) | IC50 (PI3Kγ) | IC50 (PI3Kδ) | IC50 (PI3Kβ)
CC(Nc1ncnc(N)c1C#N)c1cc(=O)n(-c2ccccc2)nc1-c1ccccc1 (centres unmarked) [Example 23, 4-amino-6-{[1-(6-oxo-1,3-diphenyl-1,6-dihydropyridazin-4-yl)ethyl]amino}pyrimidine-5-carbonitrile] | > 1000 nM | > 1000 nM | > 1000 nM | > 1000 nM
CC(c1cc(=O)n(-c2ccccc2)nc1-c1ccccc1)n1nc(-c2cc(O)cc(F)c2)c2c(N)ncnc21 (centres unmarked) [Example 5, 5-{1-[4-amino-3-(3-fluoro-5-hydroxyphenyl)-1H-pyrazolo[3,4-d]pyrimidin-1-yl]ethyl}-2,6-diphenyl-2,3-dihydropyridazin-3-one] | > 1000 nM | 10 to 1000 nM | 10 to 1000 nM | 10 to 1000 nM
CC(c1cnn(-c2ccccc2)c(=O)c1-c1ccccc1)n1nc(-c2cc(O)cc(F)c2)c2c(N)ncnc21 (centres unmarked) [Example 13, 5-{1-[4-amino-3-(3-fluoro-5-hydroxyphenyl)-1H-pyrazolo[3,4-d]pyrimidin-1-yl]ethyl}-2,4-diphenyl-2,3-dihydropyridazin-3-one] | 10 to 1000 nM | 10 to 1000 nM | 10 to 1000 nM | 10 to 1000 nM
CC(C)n1nc(-c2ccccc2)c(C(C)n2nc(-c3cc(O)cc(F)c3)c3c(N)ncnc32)cc1=O (centres unmarked) [Example 3, 5-{1-[4-amino-3-(3-fluoro-5-hydroxyphenyl)-1H-pyrazolo[3,4-d]pyrimidin-1-yl]ethyl}-6-phenyl-2-(propan-2-yl)-2,3-dihydropyridazin-3-one] | > 1000 nM | > 1000 nM | 10 to 1000 nM | 10 to 1000 nM
CC(Nc1ncnc(N)c1C#N)c1cc(=O)n(C)nc1-c1ccccc1 (centres unmarked) [Example 20, 4-amino-6-(1-(1-methyl-6-oxo-3-phenyl-1,6-dihydropyridazin-4-yl)ethylamino)pyrimidine-5-carbonitrile] | > 1000 nM | > 1000 nM | 10 to 1000 nM | > 1000 nM
CC(c1cnn(-c2ccccc2)c(=O)c1)n1nc(-c2cc(O)cc(F)c2)c2c(N)ncnc21 (centres unmarked) [Example 8, 5-{1-[4-amino-3-(3-fluoro-5-hydroxyphenyl)-1H-pyrazolo[3,4-d]pyrimidin-1-yl]ethyl}-2-phenyl-2,3-dihydropyridazin-3-one] | 10 to 1000 nM | 10 to 1000 nM | < 10 nM | < 10 nM
CC(Nc1ncnc2[nH]cnc12)c1cc(=O)n(Cc2ccccc2)nc1-c1ccccc1 (centres unmarked) [Example 24, 2-benzyl-6-phenyl-5-{1-[(9H-purin-6-yl)amino]ethyl}-2,3-dihydropyridazin-3-one] | > 1000 nM | > 1000 nM | > 1000 nM | > 1000 nM
CC(Nc1ncnc(N)c1C#N)c1cc(=O)n(CC2CC2)nc1-c1ccccc1 (centres unmarked) [Example 22, 4-amino-6-({1-[1-(cyclopropylmethyl)-6-oxo-3-phenyl-1,6-dihydropyridazin-4-yl]ethyl}amino)pyrimidine-5-carbonitrile] | > 1000 nM | > 1000 nM | > 1000 nM | > 1000 nM
CC(c1cc(=O)n(C)nc1-c1ccccc1)n1nc(-c2cc(O)cc(F)c2)c2c(N)ncnc21 (centres unmarked) [Example 2, 5-{1-[4-amino-3-(3-fluoro-5-hydroxyphenyl)-1H-pyrazolo[3,4-d]pyrimidin-1-yl]ethyl}-2-methyl-6-phenyl-2,3-dihydropyridazin-3-one] | > 1000 nM | 10 to 1000 nM | 10 to 1000 nM | 10 to 1000 nM
CC(Nc1ncnc(N)c1C#N)c1cc(=O)n(C(C)C)nc1-c1ccccc1 (centres unmarked) [Example 21, 4-amino-6-({1-[6-oxo-3-phenyl-1-(propan-2-yl)-1,6-dihydropyridazin-4-yl]ethyl}amino)pyrimidine-5-carbonitrile] | > 1000 nM | > 1000 nM | > 1000 nM | > 1000 nM
CC(c1cc(=O)n(Cc2ccccn2)nc1-c1ccccc1)n1nc(-c2cc(O)cc(F)c2)c2c(N)ncnc21 (centres unmarked) [Example 6, 5-{1-[4-amino-3-(3-fluoro-5-hydroxyphenyl)-1H-pyrazolo[3,4-d]pyrimidin-1-yl]ethyl}-6-phenyl-2-(pyridin-2-ylmethyl)-2,3-dihydropyridazin-3-one] | > 1000 nM | > 1000 nM | 10 to 1000 nM | 10 to 1000 nM
CC(c1cnn(-c2cccnc2)c(=O)c1-c1ccccc1)n1nc(-c2cc(O)cc(F)c2)c2c(N)ncnc21 (centres unmarked) [Example 15, 5-{1-[4-amino-3-(3-fluoro-5-hydroxyphenyl)-1H-pyrazolo[3,4-d]pyrimidin-1-yl]ethyl}-4-phenyl-2-(pyridin-3-yl)-2,3-dihydropyridazin-3-one] | > 1000 nM | 10 to 1000 nM | < 10 nM | 10 to 1000 nM
CC(c1cc(=O)n(Cc2ccccc2)nc1-c1ccccc1)n1nc(-c2cc(O)cc(F)c2)c2c(N)ncnc21 (centres unmarked) [Example 1, 5-{1-[4-amino-3-(3-fluoro-5-hydroxyphenyl)-1H-pyrazolo[3,4-d]pyrimidin-1-yl]ethyl}-2-benzyl-6-phenyl-2,3-dihydropyridazin-3-one] | > 1000 nM | > 1000 nM | 10 to 1000 nM | 10 to 1000 nM
CC(Nc1ncnc(N)c1C#N)c1cc(=O)n(Cc2ccccc2)nc1-c1ccccc1 (centres unmarked) [Example 19, 4-amino-6-{[1-(1-benzyl-6-oxo-3-phenyl-1,6-dihydropyridazin-4-yl)ethyl]amino}pyrimidine-5-carbonitrile] | > 1000 nM | > 1000 nM | > 1000 nM | > 1000 nM
CC(c1cnn(Cc2ccccc2)c(=O)c1)n1nc(-c2cc(O)cc(F)c2)c2c(N)ncnc21 (centres unmarked) [Example 7, 5-{1-[4-amino-3-(3-fluoro-5-hydroxyphenyl)-1H-pyrazolo[3,4-d]pyrimidin-1-yl]ethyl}-2-benzyl-2,3-dihydropyridazin-3-one] | 10 to 1000 nM | 10 to 1000 nM | < 10 nM | < 10 nM
Nc1ncnc2c1c(-c1cc(O)cc(F)c1)nn2Cc1cnn(Cc2ccccc2)c(=O)c1 [Example 18, 5-{[4-amino-3-(3-fluoro-5-hydroxyphenyl)-1H-pyrazolo[3,4-d]pyrimidin-1-yl]methyl}-2-benzyl-2,3-dihydropyridazin-3-one] | 10 to 1000 nM | 10 to 1000 nM | < 10 nM | 10 to 1000 nM
CC(c1cnn(C)c(=O)c1-c1ccccc1)n1nc(-c2cc(O)cc(F)c2)c2c(N)ncnc21 (centres unmarked) [Example 12, 5-{1-[4-amino-3-(3-fluoro-5-hydroxyphenyl)-1H-pyrazolo[3,4-d]pyrimidin-1-yl]ethyl}-2-methyl-4-phenyl-2,3-dihydropyridazin-3-one] | > 1000 nM | 10 to 1000 nM | < 10 nM | 10 to 1000 nM
CC(c1cc(=O)n(CC2CC2)nc1-c1ccccc1)n1nc(-c2cc(O)cc(F)c2)c2c(N)ncnc21 (centres unmarked) [Example 4, 5-{1-[4-amino-3-(3-fluoro-5-hydroxyphenyl)-1H-pyrazolo[3,4-d]pyrimidin-1-yl]ethyl}-2-(cyclopropylmethyl)-6-phenyl-2,3-dihydropyridazin-3-one] | > 1000 nM | > 1000 nM | 10 to 1000 nM | 10 to 1000 nM
CC(c1cnn(C)c(=O)c1)n1nc(-c2cc(O)cc(F)c2)c2c(N)ncnc21 (centres unmarked) [Example 9, 5-{1-[4-amino-3-(3-fluoro-5-hydroxyphenyl)-1H-pyrazolo[3,4-d]pyrimidin-1-yl]ethyl}-2-methyl-2,3-dihydropyridazin-3-one] | 10 to 1000 nM | 10 to 1000 nM | < 10 nM | 10 to 1000 nM
CC(c1cnn(CCN2CCOCC2)c(=O)c1-c1ccccc1)n1nc(-c2cc(O)cc(F)c2)c2c(N)ncnc21 (centres unmarked) [Example 14, 5-{1-[4-amino-3-(3-fluoro-5-hydroxyphenyl)-1H-pyrazolo[3,4-d]pyrimidin-1-yl]ethyl}-2-[2-(morpholin-4-yl)ethyl]-4-phenyl-2,3-dihydropyridazin-3-one] | > 1000 nM | > 1000 nM | < 10 nM | > 1000 nM
